{
  "source": "patent US12173212B2",
  "about": "“Design, synthesis, and photophysical properties of a novel NIR II dye for biological imaging and optoelectronic devices” (University of Mississippi, priority 2020, dated 2024)",
  "key": {"[1]": {"experiment": "Absorption spectra (Cary 5000 UV-Vis-NIR spectrophotometer, 1 cm quartz cell)", "format": "physicochemical", "conditions": "ring closed lactone form, FIG. 2", "method": "(§1) All chemicals and solvents were purchased from commercial suppliers and used without further purification unless other-wise specified. ^1H NMR (500 MHz) and ^13C NMR ([…]) spectra were recorded in deuterated solvents on a Bruker ADVANCE 500 NMR Spectrometer. J values are expressed in Hz and quoted chemical shifts are in ppm downfield from tetramethylsilane (TMS) reference using the residual protonated solvents as an internal standard. The signals have been designated as follows: s (singlet), d (doublet), t (triplet), m (multiplets). High resolution mass spectra (HRMS) were deter-mined on Bruker-micrOTOF-Q II Mass Spectrometer. Absorption spectra were acquired using a Cary 5000 UV-Vis-NIR spectrophotometer in a 1 cm quartz cell. Fluorescence spectra were acquired using a Horiba QuantaMaster 8075-21 spectrofluorometer with xenon lamp excitation and liquid nitrogen cooled indium gallium arsenide solid state detector. […] The relative quantum yield of the rhodindolizine dye was calculated using a known technique. […] The absorbance point for the quantum yield was chosen because of similar overlap in the absorption spectra between the standard and the rhodindolizine dye. […]\n(§2) Additionally, a range of solvent polarities were evaluated to access the polarity of RhIndz in the ground-state via absorption spectroscopy and in the excited-state via fluorescence spectroscopy (Table 6)."}, "[2]": {"experiment": "Fluorescence spectra (Horiba QuantaMaster 8075-21 spectrofluorometer, InGaAs detector)", "format": "physicochemical", "conditions": "closed spirolactone structure", "method": "as §1, §2"}},
  "data": [
    {"smiles": "Cc1c(-c2ccccc2)c(-c2ccc3c(c2)Oc2cc(-c4c(-c5ccccc5)c(C)c5ccccn45)ccc2C32OC(=O)c3ccccc32)n2ccccc12", "note": "[RhIndz, 3′,6′-bis(1-methyl-2-phenylindolizin-3-yl)-3H-spiro[2-benzofuran-1,9′-xanthen]-3-one]", "values": [
      {"measurement": "absorption maximum", "setting": "[1]", "value": 375, "unit": "nm"},
      {"measurement": "fluorescence of closed spirocyclic form", "setting": "[2]", "value": "non-fluorescent"}
    ]}
  ]
}
